Source: the NIST ThermoML archive (doi:10.1021/je400055v)

Assay: xn = mol fraction of the nth substance listed
Settings: Liquid, Vibrating tube method

CCCCCCCCCCC [undecane] + CCCCCCC
Settings	mass density [kg/m3]
323.12 K, 7000 kPa, x2 = 0.7482	685.4
323.12 K, 8000 kPa, x2 = 0.7482	686.4
323.12 K, 8001 kPa, x2 = 0.05	722.8
323.12 K, 9000 kPa, x2 = 0.05	723.6
323.12 K, 9000 kPa, x2 = 0.7482	687.3
323.12 K, 10000 kPa, x2 = 0.05	724.5
323.12 K, 10000 kPa, x2 = 0.7482	688.3
323.12 K, 11000 kPa, x2 = 0.05	725.3
323.12 K, 11000 kPa, x2 = 0.7482	689.2
323.12 K, 12000 kPa, x2 = 0.05	726.1
323.12 K, 12000 kPa, x2 = 0.7482	690.1
323.12 K, 13000 kPa, x2 = 0.05	726.8
323.12 K, 13000 kPa, x2 = 0.7482	691.1
323.12 K, 14000 kPa, x2 = 0.05	727.6
323.12 K, 14000 kPa, x2 = 0.7482	691.9
323.12 K, 15000 kPa, x2 = 0.05	728.4
323.12 K, 15000 kPa, x2 = 0.7482	692.8
323.12 K, 16000 kPa, x2 = 0.05	729.1
323.12 K, 16000 kPa, x2 = 0.7482	693.7
323.12 K, 17000 kPa, x2 = 0.05	729.9
323.12 K, 17000 kPa, x2 = 0.7482	694.5
323.12 K, 18000 kPa, x2 = 0.05	730.6
323.12 K, 18000 kPa, x2 = 0.7482	695.4
323.12 K, 19000 kPa, x2 = 0.05	731.3
323.12 K, 19000 kPa, x2 = 0.7482	696.2
323.12 K, 20000 kPa, x2 = 0.05	732
323.12 K, 20000 kPa, x2 = 0.7482	697
323.12 K, 21000 kPa, x2 = 0.05	732.7
323.12 K, 21000 kPa, x2 = 0.7482	697.8
323.12 K, 22000 kPa, x2 = 0.7482	698.6
323.12 K, 22001 kPa, x2 = 0.05	733.4
323.12 K, 23000 kPa, x2 = 0.05	734.1
323.12 K, 23000 kPa, x2 = 0.7482	699.4
323.12 K, 24000 kPa, x2 = 0.05	734.8
323.12 K, 24000 kPa, x2 = 0.7482	700.1
323.12 K, 25000 kPa, x2 = 0.05	735.4
323.12 K, 25000 kPa, x2 = 0.7482	700.9
323.15 K, 1000 kPa, x2 = 0.2346	708.9
323.15 K, 2000 kPa, x2 = 0.2346	709.9
323.15 K, 3000 kPa, x2 = 0.2346	710.8
323.15 K, 4001 kPa, x2 = 0.2346	711.7
323.15 K, 5001 kPa, x2 = 0.2346	712.6
323.15 K, 6001 kPa, x2 = 0.2346	713.5
323.15 K, 7001 kPa, x2 = 0.2346	714.4
323.15 K, 8000 kPa, x2 = 0.2346	715.2
323.15 K, 9000 kPa, x2 = 0.2346	716.1
323.15 K, 10000 kPa, x2 = 0.2346	716.9
323.15 K, 11000 kPa, x2 = 0.2346	717.7
323.15 K, 12000 kPa, x2 = 0.2346	718.5
323.15 K, 13000 kPa, x2 = 0.2346	719.4
323.15 K, 14000 kPa, x2 = 0.2346	720.1
323.15 K, 15000 kPa, x2 = 0.2346	720.9
323.15 K, 16001 kPa, x2 = 0.2346	721.7
323.15 K, 17000 kPa, x2 = 0.2346	722.5
323.15 K, 18000 kPa, x2 = 0.2346	723.2
323.15 K, 19000 kPa, x2 = 0.2346	724
323.15 K, 20000 kPa, x2 = 0.2346	724.7
323.15 K, 21033 kPa, x2 = 0.2346	725.4
323.15 K, 22034 kPa, x2 = 0.2346	726.1
323.15 K, 23036 kPa, x2 = 0.2346	726.9
323.15 K, 24037 kPa, x2 = 0.2346	727.5
323.15 K, 25039 kPa, x2 = 0.2346	728.2
333.01 K, 1001 kPa, x2 = 0.9511	654.4
333.01 K, 2000 kPa, x2 = 0.9511	655.7
333.01 K, 3000 kPa, x2 = 0.9511	656.9
333.01 K, 4000 kPa, x2 = 0.9511	658.2
333.01 K, 5000 kPa, x2 = 0.9511	659.4
333.01 K, 6000 kPa, x2 = 0.9511	660.5
333.01 K, 7000 kPa, x2 = 0.9511	661.7
333.01 K, 8000 kPa, x2 = 0.9511	662.8
333.01 K, 9000 kPa, x2 = 0.9511	663.9
333.01 K, 10000 kPa, x2 = 0.9511	665
333.01 K, 11000 kPa, x2 = 0.9511	666.1
333.01 K, 12000 kPa, x2 = 0.9511	667.1
333.01 K, 13000 kPa, x2 = 0.9511	668.2
333.01 K, 14001 kPa, x2 = 0.9511	669.2
333.01 K, 15001 kPa, x2 = 0.9511	670.2
333.01 K, 16000 kPa, x2 = 0.9511	671.2
333.01 K, 17001 kPa, x2 = 0.9511	672.1
333.01 K, 18001 kPa, x2 = 0.9511	673.1
333.01 K, 19000 kPa, x2 = 0.9511	674
333.01 K, 20000 kPa, x2 = 0.9511	674.9
333.01 K, 21001 kPa, x2 = 0.9511	675.8
333.01 K, 22000 kPa, x2 = 0.9511	676.7
333.01 K, 23001 kPa, x2 = 0.9511	677.6
333.01 K, 24000 kPa, x2 = 0.9511	678.5
333.01 K, 25000 kPa, x2 = 0.9511	679.3
333.04 K, 2001 kPa, x2 = 0.5063	688
333.04 K, 3000 kPa, x2 = 0.5063	689
333.04 K, 4000 kPa, x2 = 0.5063	690.1
333.04 K, 5000 kPa, x2 = 0.5063	691.1
333.04 K, 6000 kPa, x2 = 0.5063	692.1
333.04 K, 7000 kPa, x2 = 0.5063	693.1
